The values below are quoted from earlier work in US7887828B2, “Dual action organic formulation to control two stages of insect pests” (ISCA Technologies, Inc., priority 2006, dated 2011).

For data set [1], the system named is gypsy moth larvae. Particulars: 3-day exposure; 13-day evaluation; 2nd instar larvae; treated red oak leaf disks.
Data set [2] concerns gypsy moth larvae.
Data set [3] has as its system gypsy moth larvae. Particulars: 16 hours after a 2 minute crawling exposure to glass coated with a 4 mg/litre solution.
Data set [4] relates to mammalian and avian species. The settings on record: as indicated by DAS.

On to spinosad, for which, in the data set on gypsy moth larvae [1], the LC50 is reported as 0.0015 mg AI/cm2. Besides, in the data set with gypsy moth larvae [2] (3±50 mg/litre applied to run-off, ornamental style applications), the larval populations reduced is recorded as 95±100%. Further, the population reduction entry in the data set on gypsy moth larvae [2] (application rate of 0.75 mg/litre) is reported as “large population reductions”. The “concentrations that effectively controlled 2nd instar larvae” value with gypsy moth larvae [2] (applied to foliage to run-off, laboratory potted red oak seedlings and field 4 m-tall birch trees) was 3 to 50 mg/L. In addition, the treated larvae paralyzed in the data set on gypsy moth larvae [3] is recorded as 50%. Besides, the “toxicity to mammalian and avian species” value in data set [4] is given as “little or no toxicity”.
